According to the supplement of paper PMC10307832:

What was measured:
Assay in all cases: relative viability (nuclei count vs DMSO), 5 days (fraction); higher = more cells survive
[1] = compound: Cn1cc(-c2cnc3ccc4ccc(CS(=O)(=O)NCc5ccccn5)cc4c(=O)c3c2)cn1 [MK-8033] + Nc1ncn([C@H]2C[C@H](O)[C@@H](CO)O2)c(=O)n1 [Decitabine] (partner 2 µM)
In short: (§1)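 Lung cancer cell lines were seeded in 1536-well plates and dosed by pin tool the next day, with either a single drug or a fixed anchor-drug dose combined with five library-drug doses (not always all listed) spaced in √10 steps. Five days later, one step fixed the cells and stained their nuclei (final 0.05% Triton X-100, 1% formaldehyde, 1 ug/ml Hoechst), and nuclei were counted on 4× images. Relative viability is the nuclei count in treated wells divided by the count in vehicle wells, and each value is the median of duplicate plates.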

[2] = compound: CCc1c2c(nc3ccc(OC(=O)N4CCC(N5CCCCC5)CC4)cc13)-c1cc3c(c(=O)n1C2)COC(=O)[C@]3(O)CC [Irinotecan] + O=C(c1cc(Cc2n[nH]c(=O)c3ccccc23)ccc1F)N1CCN(C(=O)C2CC2)CC1 [Olaparib] (partner 8 µM)
In short: as §1

[3] = compound: Cn1cc(-c2cnc3ccc4ccc(CS(=O)(=O)NCc5ccccn5)cc4c(=O)c3c2)cn1 [MK-8033] + CS(=O)(=O)CCNCc1ccc(-c2ccc3ncnc(Nc4ccc(OCc5cccc(F)c5)c(Cl)c4)c3c2)o1 [Lapatinib] (partner 2 µM)
In short: as §1

[4] = compound: CCc1c2c(nc3ccc(OC(=O)N4CCC(N5CCCCC5)CC4)cc13)-c1cc3c(c(=O)n1C2)COC(=O)[C@]3(O)CC [Irinotecan] + CCNC(=O)c1noc(-c2cc(C(C)C)c(O)cc2O)c1-c1ccc(CN2CCOCC2)cc1 [Luminespib] (partner 0.01 µM)
In short: as §1

Row | Cell Line | relative viability ([1]; first compound 0.02 µM) | relative viability ([1]; first compound 0.06325 µM) | relative viability ([1]; first compound 0.2 µM) | relative viability ([1]; first compound 0.6325 µM) | relative viability ([1]; first compound 2 µM) | relative viability ([2]; first compound 0.6325 µM) | relative viability ([2]; first compound 2 µM) | relative viability ([2]; first compound 6.325 µM) | relative viability ([2]; first compound 20 µM) | relative viability ([3]; first compound 0.02 µM) | relative viability ([3]; first compound 0.06325 µM) | relative viability ([3]; first compound 0.2 µM) | relative viability ([3]; first compound 0.6325 µM) | relative viability ([3]; first compound 2 µM) | relative viability ([4]; first compound 2 µM) | relative viability ([4]; first compound 6.325 µM) | relative viability ([4]; first compound 20 µM) | relative viability ([4]; first compound 0.6325 µM)
1 | 201T | 0.9 | 0.868 | 0.851 | 0.873 | 0.876 | 0.53 | 0.312 | 0.231 | 0.264 | 1.03 | 0.906 | 0.995 | 1.07 | 1.07 | 0.547 | 0.313 | 0.342 | –
2 | A549 | 0.263 | 0.319 | 0.474 | 0.156 | 0.305 | 0.073 | 0.186 | 0.0779 | 0.0719 | 0.911 | 0.954 | 0.967 | 0.946 | 1.02 | – | – | – | –
3 | A-427 | 0.579 | 0.523 | 0.585 | 0.583 | 0.569 | 0.718 | 0.551 | 0.271 | 0.104 | 1.05 | 1.1 | 0.947 | 1.1 | 1.08 | 0.574 | 0.306 | 0.166 | –
4 | ABC-1 | 1.1 | 0.976 | 1.07 | 1.01 | 1.26 | – | 0.68 | 0.421 | 0.375 | 1.19 | 1.35 | 0.955 | 1.1 | 1.43 | 0.528 | 0.352 | 0.269 | –
5 | BEN | 0.805 | 0.702 | 0.655 | 0.71 | 0.761 | 0.681 | 0.53 | 0.425 | 0.528 | 0.695 | 0.679 | 0.649 | 0.738 | 0.75 | 0.374 | 0.176 | 0.294 | 0.231
6 | CAL-12T | – | – | – | – | – | 0.494 | 0.44 | 0.288 | 0.297 | 0.604 | 0.566 | 0.601 | 0.868 | 0.591 | 0.695 | 0.2 | 0.253 | –
7 | COR-L23 | 0.447 | 0.361 | 0.465 | 0.455 | 0.443 | 0.162 | 0.215 | 0.191 | 0.0964 | 1.17 | 0.997 | 0.7 | 0.941 | 0.901 | 0.36 | 0.223 | 0.165 | 0.235
8 | COR-L 105 | 0.659 | 0.556 | 0.619 | 0.689 | 0.691 | 0.644 | 0.513 | 0.552 | 0.425 | 0.286 | 0.354 | 0.32 | 0.361 | 0.346 | 0.677 | 0.421 | 0.411 | 0.578
9 | Calu-6 | – | – | – | – | – | 0.258 | 0.326 | 0.225 | 0.128 | 1.06 | 1.03 | 0.971 | 1.15 | 1.19 | – | – | – | –
10 | ChaGo-K-1 | 0.525 | 0.463 | 0.56 | 0.385 | 0.511 | 0.223 | 0.267 | 0.245 | 0.221 | – | – | – | – | – | 0.332 | 0.23 | 0.282 | 0.309
11 | EBC-1 | – | – | – | – | – | 0.228 | 0.224 | 0.257 | 0.188 | 0.182 | 0.218 | 0.217 | 0.21 | 0.203 | – | – | – | –
12 | EKVX | 0.34 | 0.285 | 0.388 | 0.343 | 0.399 | – | 0.539 | 0.275 | 0.224 | 0.193 | 0.195 | 0.216 | 0.207 | 0.255 | 0.667 | 0.379 | 0.154 | 0.81
13 | EMC-BAC-2 | 0.941 | 0.762 | 0.967 | 0.982 | 0.938 | 0.276 | 0.292 | 0.274 | 0.158 | 0.954 | 0.792 | 0.859 | 0.959 | 0.876 | 0.407 | 0.347 | 0.375 | 0.681
14 | EPLC-272H | 0.338 | 0.373 | 0.325 | 0.367 | 0.37 | 0.508 | 0.547 | 0.307 | 0.218 | 0.905 | – | 0.914 | 1.05 | 0.903 | 0.368 | 0.287 | 0.281 | 0.203
15 | H3255 | 0.486 | – | 0.595 | 0.642 | 0.639 | 0.464 | 0.446 | 0.343 | 0.362 | 0.24 | 0.233 | 0.232 | 0.261 | 0.226 | 0.707 | 0.385 | 0.448 | 0.435
16 | HARA | 0.651 | 0.508 | 0.463 | 0.559 | 0.605 | 0.466 | 0.405 | 0.2 | 0.262 | 0.594 | 0.632 | 0.763 | 0.69 | 0.828 | 0.29 | 0.147 | 0.111 | 0.0995
17 | HCC-15 | 0.62 | 0.595 | 0.548 | 0.57 | 0.653 | 0.213 | 0.279 | 0.202 | 0.146 | 0.849 | 0.801 | 0.785 | 0.805 | 0.856 | 0.234 | 0.121 | 0.126 | –
18 | HCC-44 | 0.95 | 0.933 | 0.948 | 1.02 | 0.954 | 0.754 | 0.423 | 0.378 | 0.425 | 1.02 | 1.02 | 0.943 | 0.999 | 1 | 0.456 | 0.215 | 0.225 | –
19 | HCC-78 | 0.657 | 0.728 | 0.645 | 0.559 | 0.692 | 0.492 | 0.332 | 0.233 | 0.343 | 0.765 | 0.811 | 0.65 | – | 0.94 | – | – | – | –
20 | HCC-366 | 0.327 | 0.361 | 0.331 | 0.36 | 0.366 | 0.206 | 0.15 | 0.0823 | 0.0649 | 1.04 | 0.994 | 0.972 | 1.05 | 1.05 | – | – | – | –
